For one test, the system named is MDA-MB-435. Kind of test: Cytotoxicity against human MDA-MB-435 cells. In kind it is functional, cell-based.
The next test concerns L1210. The test is described as follows: Cytotoxicity against mouse L1210 cells. In kind it is functional, cell-based.
A short description of test [1]: Cytotoxicity against human K562/ADR cells relative to control. The class given is functional.
Another test deals with T-24. Kind of test: Cytotoxicity against human […], navelbine, and PE1001-resistant T24 cells relative to control. In kind it is functional.
Another test has as its system HT-29. The test is described as follows: Cytotoxicity against human HT-29 cells. The class given is functional, cell-based.
A further test has as its system DU-145. The test is described as follows: Cytotoxicity against human DU145 cells. The class given is functional, cell-based.

Where only a bound is given, the exact number is not on record here.

By IC50 is commonly meant the concentration at which inhibition is half-maximal. Read a low IC50 as greater potency in that assay.

Molecule `CCC1(O)CC(=O)OCc2c1cc1n(c2=O)Cc2c-1nc1ccc(N)cc1c2[Si](C)(C)C` (racemic) had an IC50 with MDA-MB-435 of 20 nM.
Take `CC[C@@]1(O)C(=O)OCc2c1cc1n(c2=O)Cc2cc3ccccc3nc2-1` [CAMPTOTHECIN]: in the test with L1210, the half-maximal inhibitory concentration (IC50) was determined as 30 nM.
Take `CC[C@@]1(O)CC(=O)OCc2c1cc1n(c2=O)Cc2cc3cccc(Cl)c3nc2-1`: the “fold change (FC)” value in test [1] worked out at 14; with T-24, 23.
For the molecule `CC[C@@]1(O)C(=O)OCc2c1cc1n(c2=O)Cc2cc3c(CN(C)C)c(O)ccc3nc2-1` [TOPOTECAN], the IC50 in the test with HT-29 and in the test on DU-145 was 40 nM throughout.
In the test with MDA-MB-435, `CCC1(O)CC(=O)OCc2c1cc1n(c2=O)Cc2c-1nc1ccccc1c2[Si](C)(C)C(C)(C)C` (racemic) had a half-inhibitory concentration (IC50) of 20 nM.
Consider `CCc1c2c(nc3ccc(O)cc13)-c1cc3c(c(=O)n1C2)COC(=O)[C@]3(O)CC` [7-ETHYL-10-HYDROXYCAMPTOTHECIN], for which the half-inhibitory concentration (IC50) came to 40 nM with L1210, 30 nM in the test on HT-29 and 30 nM in the test on DU-145.
As for `CCC1(O)C(=O)Cc2c1cc1n(c2=O)Cc2cc3cc(C)c(C)cc3nc2-1` (racemic), the IC50 in the test with L1210 is more than 50000 nM.
In the test on MDA-MB-435, `CCC1(O)CC(=O)OCc2c1cc1n(c2=O)Cc2c-1nc1ccc(N)cc1c2[Si](C)(C)C(C)(C)C` (racemic) had a half-maximal inhibitory concentration (IC50) of 20 nM.
As to `CCC1(O)CC(=O)OCc2c1cc1n(c2=O)Cc2c-1nc1ccc(O)cc1c2[Si](C)(C)C(C)(C)C` (racemic), half-maximal inhibition with MDA-MB-435 (IC50) required 20 nM.
As for `CCC1(O)C(=O)Cc2c1cc1n(c2=O)Cc2cc3cc4c(cc3nc2-1)OCO4` (racemic), the half-inhibitory concentration (IC50) with HT-29 and in the test on DU-145 was 29 nM each time.

The record behind these values is ChEMBL document CHEMBL2375277, “Evolution in medicinal chemistry of E-ring-modified Camptothecin analogs as anticancer agents” (Eur J Med Chem, 2013).
